According to ChEMBL document CHEMBL1152018, “Molecular design of novel PGI2 agonists without PG skeleton. II” (Bioorg Med Chem Lett, 1995):

Tests used:
Homo sapiens = species: Homo sapiens; experiment: Inhibitory activity against ADP-induced platelet aggregation using human platelet rich plasma at a concentration of 4 uM by functional assay
Prostacyclin receptor = Prostacyclin receptor (Homo sapiens, UniProt P43119); experiment: Displacement of [3H]iloprost from Prostaglandin I2 receptor of human platelets
Cavia porcellus [1] = species: Cavia porcellus; experiment: Effective dose for ex vivo inhibition of platelet aggregation for four hours in guinea pigs; format: functional, organism-based
Cavia porcellus [2] = species: Cavia porcellus; experiment: Evaluated for ADP-induced antiaggregation of guinea pig platelets; format: functional
Canis familiaris = species: Canis familiaris; experiment: Evaluated for ADP-induced antiaggregation of dog platelets; format: functional; conditions: Canis lupus familiaris

Prostacyclin receptor, sequence (P43119 whole entry): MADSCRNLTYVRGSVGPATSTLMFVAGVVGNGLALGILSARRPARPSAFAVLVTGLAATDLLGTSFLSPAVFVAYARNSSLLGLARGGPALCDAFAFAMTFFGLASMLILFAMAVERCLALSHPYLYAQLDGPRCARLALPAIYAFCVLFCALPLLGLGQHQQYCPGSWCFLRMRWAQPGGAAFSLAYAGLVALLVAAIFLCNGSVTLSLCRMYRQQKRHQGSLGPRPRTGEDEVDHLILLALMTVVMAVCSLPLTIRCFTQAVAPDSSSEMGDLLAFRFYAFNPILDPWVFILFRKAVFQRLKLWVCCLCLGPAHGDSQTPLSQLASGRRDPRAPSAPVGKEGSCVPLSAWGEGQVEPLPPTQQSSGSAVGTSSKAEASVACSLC

CCC/C(CCC1CCCc2c(OCC(=O)O)cccc21)=N\OC(c1ccccc1)c1ccccc1 (configuration not stated)
IC50 (Homo sapiens): 2.4 µM | IC50 (Prostacyclin receptor): 2.1 µM

C/C(CC1CCc2c(cccc2OCC(=O)O)C1)=N\OCc1ccccc1 (configuration not stated)
IC50 (Homo sapiens): 12 µM | IC50 (Prostacyclin receptor): 5.3 µM

C/C(CC1CCc2c(cccc2OCC(=O)O)C1)=N\OC(c1ccccc1)c1ccccc1 (configuration not stated)
IC50 (Prostacyclin receptor): 0.38 µM

C/C(C[C@H]1CCc2c(cccc2OCC(=O)O)C1)=N\OC(c1ccccc1)c1ccccc1
IC50 (Prostacyclin receptor): 0.22 µM

CCC/C(C[C@H]1CCc2c(cccc2OCC(=O)O)C1)=N\OC(c1ccccc1)c1ccccc1
IC50 (Homo sapiens): 0.13 µM

CC/C(CC1CCc2c(cccc2OCC(=O)O)C1)=N\OC(c1ccccc1)c1ccccc1 (configuration not stated)
IC50 (Homo sapiens): 0.07 µM | IC50 (Prostacyclin receptor): 0.15 µM

C/C(C[C@@H]1CCc2c(cccc2OCC(=O)O)C1)=N\OC(c1ccccc1)c1ccccc1
IC50 (Homo sapiens): 1.9 µM | IC50 (Prostacyclin receptor): 2.2 µM

CCCCC[C@H](O)/C=C/[C@H]1[C@H](O)CC(=O)[C@@H]1CCCCCCC(=O)O [ALPROSTADIL]
IC50 (Homo sapiens): 0.07 µM | IC50 (Prostacyclin receptor): 1.4 µM

CCC/C(CC1CCc2c(cccc2OCC(=O)O)C1)=N\OC(c1ccccc1)c1ccccc1 (configuration not stated) [AP-227]
EC50 (Cavia porcellus [1]): 0.82 mg/kg | IC50 (Prostacyclin receptor): 0.15 µM | IC50 (Cavia porcellus [2]): 1.9 µM | IC50 (Canis familiaris): 7.3 µM
